# According to publication PMC5218480 (PLoS ONE, 2017):
# Test system: MV-4-11 cells
# Assay: Gene expression microarray analysis (Affymetrix PrimeView) and GSEA
# Type: cell-based, human
# Design: RFU PODN (11730768_x_at) / Fold change /veh PODN (11730768_x_at) / RFU LINC00158 (11744669_a_at) / Fold change /veh LINC00158 (11744669_a_at) / RFU DUSP10 (11751237_a_at) / Fold change /veh DUSP10 (11751237_a_at) / RFU ID3 (11757404_x_at) / Fold change /veh ID3 (11757404_x_at) / RFU PLEKHG5 (11737974_s_at) / Fold change /veh PLEKHG5 (11737974_s_at) / RFU LRRC4B (11730491_at) / Fold change /veh LRRC4B (11730491_at) / RFU GIMAP4 (11747438_a_at) / Fold change /veh GIMAP4 (11747438_a_at) / RFU KRT8 (11758183_x_at) / Fold change /veh KRT8 (11758183_x_at) / RFU CNN1 (11734310_a_at) / Fold change /veh CNN1 (11734310_a_at) / RFU VPS37D (11726825_at) / Fold change /veh VPS37D (11726825_at) / RFU C10orf10 (11716522_x_at) / Fold change /veh C10orf10 (11716522_x_at) / RFU KIR2DL2 /// KIR2DL4 /// KIR2DL5A /// KIR2DL5B /// KIR2DS1 /// KIR2DS2 /// KIR2DS3 /// KIR2DS4 /// KIR3DL3 /// KIR3DL3 /// KIR3DS1 (11738374_at) / Fold change /veh KIR2DL2 /// KIR2DL4 /// KIR2DL5A /// KIR2DL5B /// KIR2DS1 /// KIR2DS2 /// KIR2DS3 /// KIR2DS4 /// KIR3DL3 /// KIR3DL3 /// KIR3DS1 (11738374_at) / RFU C1QL1 (11718748_at) / Fold change /veh C1QL1 (11718748_at) / RFU TMPRSS4 (11747572_a_at) / Fold change /veh TMPRSS4 (11747572_a_at) / RFU HAMP (11756126_x_at) / Fold change /veh HAMP (11756126_x_at) / RFU RNFT2 (11725882_a_at) / Fold change /veh RNFT2 (11725882_a_at) / RFU NR4A2 (11747474_a_at) / Fold change /veh NR4A2 (11747474_a_at) / RFU ABCC12 (11746883_a_at) / Fold change /veh ABCC12 (11746883_a_at) / RFU TMEM136 (11760407_x_at) / Fold change /veh TMEM136 (11760407_x_at) / RFU CLDN22 /// WWC2 (11732394_at) / Fold change /veh CLDN22 /// WWC2 (11732394_at) / RFU HLA-DPB1 (11760878_x_at) / Fold change /veh HLA-DPB1 (11760878_x_at) / RFU SPINT1 (11716480_a_at) / Fold change /veh SPINT1 (11716480_a_at) / RFU GAP43 (11754022_s_at) / Fold change /veh GAP43 (11754022_s_at) / RFU A4GNT (11735810_at) / Fold change /veh A4GNT (11735810_at) / RFU PRB3 (11715151_x_at) / Fold change /veh PRB3 (11715151_x_at) / RFU TUBB4B (11761932_at) / Fold change /veh TUBB4B (11761932_at) / RFU CAPN14 (11732068_a_at) / Fold change /veh CAPN14 (11732068_a_at) / RFU TMCC2 (11721928_a_at) / Fold change /veh TMCC2 (11721928_a_at) / RFU IRGQ (11745062_a_at) / Fold change /veh IRGQ (11745062_a_at) / RFU FAM174B (11720279_a_at) / Fold change /veh FAM174B (11720279_a_at) / RFU TMPRSS4 (11748680_a_at) / Fold change /veh TMPRSS4 (11748680_a_at) / RFU FAM212B (11763350_a_at) / Fold change /veh FAM212B (11763350_a_at) / RFU PLEKHG5 (11743358_a_at) / Fold change /veh PLEKHG5 (11743358_a_at) / RFU ZSCAN30 (11745921_a_at) / Fold change /veh ZSCAN30 (11745921_a_at) / RFU CMKLR1 (11741424_a_at) / Fold change /veh CMKLR1 (11741424_a_at) / RFU LOC101060620 /// MAPK8IP1 (11723275_at) / Fold change /veh LOC101060620 /// MAPK8IP1 (11723275_at) / RFU SPTSSB (11747773_x_at) / Fold change /veh SPTSSB (11747773_x_at) / RFU PRSS12 (11739890_at) / Fold change /veh PRSS12 (11739890_at) / RFU BIN1 (11741810_x_at) / Fold change /veh BIN1 (11741810_x_at) / RFU WNT11 (11732464_a_at) / Fold change /veh WNT11 (11732464_a_at) / RFU C10orf10 (11716521_a_at) / Fold change /veh C10orf10 (11716521_a_at) / RFU C5orf56 (11738089_at) / Fold change /veh C5orf56 (11738089_at) / RFU CYB561 (11721691_x_at) / Fold change /veh CYB561 (11721691_x_at) / RFU ANKRD19P (11752326_a_at) / Fold change /veh ANKRD19P (11752326_a_at) / RFU OR2T12 /// OR2T33 /// OR2T8 (11738714_s_at) / Fold change /veh OR2T12 /// OR2T33 /// OR2T8 (11738714_s_at) / RFU VCAN (11748164_a_at) / Fold change /veh VCAN (11748164_a_at) / RFU JSRP1 (11732532_at) / Fold change /veh JSRP1 (11732532_at) / RFU KRTAP10-11 (11738290_x_at) / Fold change /veh KRTAP10-11 (11738290_x_at) / RFU MYO3A (11730013_a_at) / Fold change /veh MYO3A (11730013_a_at) / RFU EBF3 (11725865_a_at) / Fold change /veh EBF3 (11725865_a_at) / RFU CAMK2N1 (11719241_x_at) / Fold change /veh CAMK2N1 (11719241_x_at) / RFU C5orf56 (11738088_a_at) / Fold change /veh C5orf56 (11738088_a_at) / RFU OLFML3 (11715873_a_at) / Fold change /veh OLFML3 (11715873_a_at) / RFU LOC100653217 /// NTM (11731650_a_at) / Fold change /veh LOC100653217 /// NTM (11731650_a_at) / RFU MAPK11 (11762145_a_at) / Fold change /veh MAPK11 (11762145_a_at) / RFU FIZ1 (11724087_x_at) / Fold change /veh FIZ1 (11724087_x_at) / RFU OASL (11726364_x_at) / Fold change /veh OASL (11726364_x_at) / RFU SOX15 (11748057_x_at) / Fold change /veh SOX15 (11748057_x_at) / RFU CD79A (11719716_a_at) / Fold change /veh CD79A (11719716_a_at) / RFU HIST1H1D (11736915_at) / Fold change /veh HIST1H1D (11736915_at) / RFU CASKIN2 (11723855_a_at) / Fold change /veh CASKIN2 (11723855_a_at) / RFU LOC730098 (11760151_x_at) / Fold change /veh LOC730098 (11760151_x_at) / RFU OR4N2 (11742367_at) / Fold change /veh OR4N2 (11742367_at) / RFU PRRT2 (11749266_a_at) / Fold change /veh PRRT2 (11749266_a_at) / RFU SNX32 (11753110_a_at) / Fold change /veh SNX32 (11753110_a_at) / RFU CDHR5 (11726645_a_at) / Fold change /veh CDHR5 (11726645_a_at) / RFU RCAN1 (11760418_a_at) / Fold change /veh RCAN1 (11760418_a_at) / RFU FAM167A (11723789_a_at) / Fold change /veh FAM167A (11723789_a_at) / RFU FAM26E (11764081_at) / Fold change /veh FAM26E (11764081_at) / RFU ISYNA1 (11749810_s_at) / Fold change /veh ISYNA1 (11749810_s_at) / RFU ACY1 (11761880_at) / Fold change /veh ACY1 (11761880_at) / RFU 11764098_at / Fold change /veh 11764098_at / RFU SAMD14 (11745864_x_at) / Fold change /veh SAMD14 (11745864_x_at) / RFU NPB (11741838_a_at) / Fold change /veh NPB (11741838_a_at) / RFU TMPRSS6 (11731388_a_at) / Fold change /veh TMPRSS6 (11731388_a_at) / RFU KRTAP10-2 (11738614_at) / Fold change /veh KRTAP10-2 (11738614_at) / RFU ARHGAP8 /// PRR5-ARHGAP8 (11727945_x_at) / Fold change /veh ARHGAP8 /// PRR5-ARHGAP8 (11727945_x_at) / RFU KRTAP5-7 /// NADSYN1 (11734609_at) / Fold change /veh KRTAP5-7 /// NADSYN1 (11734609_at) / RFU RASL12 (11751679_a_at) / Fold change /veh RASL12 (11751679_a_at) / RFU CDKN2B (11736163_a_at) / Fold change /veh CDKN2B (11736163_a_at) / RFU PRF1 (11729649_at) / Fold change /veh PRF1 (11729649_at) / RFU, ZNF638 /// ZNF638-IT1 / Fold change vs veh, ZNF638 /// ZNF638-IT1 / RFU, PANK3 / Fold change vs veh, PANK3 / RFU, SH3YL1 / Fold change vs veh, SH3YL1 / RFU, ZEB2 / Fold change vs veh, ZEB2 / RFU, NRIP1 / Fold change vs veh, NRIP1 / RFU, PTTG1IP / Fold change vs veh, PTTG1IP / RFU, CAPN2 / Fold change vs veh, CAPN2 / RFU, MED14 / Fold change vs veh, MED14 / RFU, SNORA58 / Fold change vs veh, SNORA58 / RFU, C1orf63 / Fold change vs veh, C1orf63 / RFU, LRRFIP1 / Fold change vs veh, LRRFIP1 / RFU, NDUFAF7 / Fold change vs veh, NDUFAF7 / RFU, SLC12A2 / Fold change vs veh, SLC12A2 / RFU, IBTK / Fold change vs veh, IBTK / RFU, ESF1 / Fold change vs veh, ESF1 / Fold change vs veh, TMEM50B / RFU, TAOK1 / Fold change vs veh, TAOK1 / RFU, ACBD3 / Fold change vs veh, ACBD3 / RFU, TMA16 / Fold change vs veh, TMA16 / RFU, RWDD3 / Fold change vs veh, RWDD3 / RFU, BCAT1 / Fold change vs veh, BCAT1 / RFU, EDEM3 / Fold change vs veh, EDEM3 / RFU, TMEM33 / Fold change vs veh, TMEM33 / RFU, WDR75 / Fold change vs veh, WDR75 / RFU, AHCTF1 / Fold change vs veh, AHCTF1 / RFU, TFRC / Fold change vs veh, TFRC / RFU, ZDHHC17 / Fold change vs veh, ZDHHC17 / RFU, NOM1 / Fold change vs veh, NOM1 / RFU, ARL8B / Fold change vs veh, ARL8B / RFU, ZBTB11 / Fold change vs veh, ZBTB11 / RFU, TAMM41 / Fold change vs veh, TAMM41 / RFU, KIAA1704 /// LOC100996395 / Fold change vs veh, KIAA1704 /// LOC100996395 / RFU, ING1 / Fold change vs veh, ING1 / RFU, TRMT61B / Fold change vs veh, TRMT61B / RFU, FUBP3 / Fold change vs veh, FUBP3 / RFU, TP53 / Fold change vs veh, TP53 / RFU, TNKS2 / Fold change vs veh, TNKS2 / RFU, ZFP14 / Fold change vs veh, ZFP14 / RFU, ACTR2 / Fold change vs veh, ACTR2 / RFU, PPP3R1 / Fold change vs veh, PPP3R1 / RFU, PIK3R1 / Fold change vs veh, PIK3R1 / RFU, HNRNPA1 / Fold change vs veh, HNRNPA1 / RFU, RNF170 / Fold change vs veh, RNF170 / RFU, ZNF28 / Fold change vs veh, ZNF28 / RFU, RNGTT / Fold change vs veh, RNGTT / RFU, OGT / Fold change vs veh, OGT / RFU, BRD1 / Fold change vs veh, BRD1 / RFU, MARS / Fold change vs veh, MARS / RFU, ZNF655 / Fold change vs veh, ZNF655 / RFU, FAHD1 / Fold change vs veh, FAHD1 / RFU, BDP1 / Fold change vs veh, BDP1 / RFU, LRRCC1 / Fold change vs veh, LRRCC1 / RFU, ARID1A / Fold change vs veh, ARID1A / RFU, ZNF146 / Fold change vs veh, ZNF146 / RFU, ZNF330 / Fold change vs veh, ZNF330 / RFU, GPN3 / Fold change vs veh, GPN3 / RFU, C9orf123 / Fold change vs veh, C9orf123 / RFU, N4BP2L2 / Fold change vs veh, N4BP2L2 / RFU, ARFIP1 / Fold change vs veh, ARFIP1 / RFU, FAM179B / Fold change vs veh, FAM179B / RFU, BCL10 / Fold change vs veh, BCL10 / RFU, UHRF1BP1L / Fold change vs veh, UHRF1BP1L / RFU, BET1 / Fold change vs veh, BET1 / RFU, CNOT2 / Fold change vs veh, CNOT2 / RFU, ZNF268 / Fold change vs veh, ZNF268 / Fold change vs veh, ZNF507 / RFU, DGCR2 / Fold change vs veh, DGCR2 / RFU, WDSUB1 / Fold change vs veh, WDSUB1 / Fold change vs veh, HSP90B1 /// MIR3652 / RFU, ADSS / Fold change vs veh, ADSS / RFU, GK / Fold change vs veh, GK / RFU, ZNF148 / Fold change vs veh, ZNF148 / RFU, TAF9 / Fold change vs veh, TAF9 / RFU, SLC1A5 / Fold change vs veh, SLC1A5 / RFU, SLMO2 / Fold change vs veh, SLMO2 / RFU, ABCC4 / Fold change vs veh, ABCC4 / RFU, LOC101060439 /// RAP1B / Fold change vs veh, LOC101060439 /// RAP1B / RFU, RFX7 / Fold change vs veh, RFX7 / RFU, GTPBP10 / Fold change vs veh, GTPBP10 / RFU, CNEP1R1 / Fold change vs veh, CNEP1R1 / RFU, BIVM-ERCC5 /// ERCC5 / Fold change vs veh, BIVM-ERCC5 /// ERCC5 / RFU, ILF3 / Fold change vs veh, ILF3 / RFU 11762660_at / Fold change /veh 11762660_at / RFU VCAN (11757783_s_at) / Fold change /veh VCAN (11757783_s_at) / RFU DDX43 (11728927_at) / Fold change /veh DDX43 (11728927_at) / RFU KRT8 (11758188_x_at) / Fold change /veh KRT8 (11758188_x_at) / RFU NKD1 (11759106_at) / Fold change /veh NKD1 (11759106_at) / RFU SRD5A1 (11742802_a_at) / Fold change /veh SRD5A1 (11742802_a_at) / RFU TPSAB1 /// TPSB2 (11721975_s_at) / Fold change /veh TPSAB1 /// TPSB2 (11721975_s_at) / RFU GSTM3 (11746129_a_at) / Fold change /veh GSTM3 (11746129_a_at) / RFU IL23R (11737362_x_at) / Fold change /veh IL23R (11737362_x_at) / RFU TMEM51 (11727254_a_at) / Fold change /veh TMEM51 (11727254_a_at) / RFU PIWIL2 (11732686_x_at) / Fold change /veh PIWIL2 (11732686_x_at) / RFU ORM1 (11744905_x_at) / Fold change /veh ORM1 (11744905_x_at) / RFU CCDC152 (11743942_at) / Fold change /veh CCDC152 (11743942_at) / RFU ECM1 (11717891_a_at) / Fold change /veh ECM1 (11717891_a_at) / RFU IL23R (11748794_a_at) / Fold change /veh IL23R (11748794_a_at) / RFU TNFAIP8L3 (11732012_x_at) / Fold change /veh TNFAIP8L3 (11732012_x_at) / RFU MBOAT4 (11741988_at) / Fold change /veh MBOAT4 (11741988_at) / RFU 11764193_at / Fold change /veh 11764193_at / RFU TMEM53 (11763286_at) / Fold change /veh TMEM53 (11763286_at) / RFU MAGEB2 (11727129_at) / Fold change /veh MAGEB2 (11727129_at) / RFU TMEM200A (11744735_a_at) / Fold change /veh TMEM200A (11744735_a_at) / RFU CCDC152 (11751479_a_at) / Fold change /veh CCDC152 (11751479_a_at) / RFU FAM211A (11726209_a_at) / Fold change /veh FAM211A (11726209_a_at) / RFU RGS16 (11746705_a_at) / Fold change /veh RGS16 (11746705_a_at) / RFU VCAN (11755009_s_at) / Fold change /veh VCAN (11755009_s_at) / RFU RHOB (11743442_s_at) / Fold change /veh RHOB (11743442_s_at) / RFU RGS16 (11720943_a_at) / Fold change /veh RGS16 (11720943_a_at) / RFU RGS16 (11720944_at) / Fold change /veh RGS16 (11720944_at) / RFU, VPS4B / Fold change vs veh, VPS4B / RFU, CREB1 / Fold change vs veh, CREB1 / RFU, DNAJC13 / Fold change vs veh, DNAJC13 / RFU, GNAQ / Fold change vs veh, GNAQ / RFU, CDK5R1 / Fold change vs veh, CDK5R1 / RFU, ZRANB3 / Fold change vs veh, ZRANB3 / RFU, CUL4A / Fold change vs veh, CUL4A / RFU, CCNY / Fold change vs veh, CCNY / RFU, UFL1 / Fold change vs veh, UFL1 / RFU, COG3 / Fold change vs veh, COG3 / RFU, DIAPH2 / Fold change vs veh, DIAPH2 / RFU, SKA2 / Fold change vs veh, SKA2 / RFU, AFF3 / Fold change vs veh, AFF3 / RFU, LMF1 / Fold change vs veh, LMF1 / RFU, IPO11 / Fold change vs veh, IPO11 / RFU, DFFB / Fold change vs veh, DFFB / RFU, FOXP1 / Fold change vs veh, FOXP1 / RFU, CARD8 / Fold change vs veh, CARD8 / RFU, STRN3 / Fold change vs veh, STRN3 / RFU, ADK / Fold change vs veh, ADK / RFU, RASSF2 / Fold change vs veh, RASSF2 / RFU, WIPF1 / Fold change vs veh, WIPF1 / RFU, LARP1B / Fold change vs veh, LARP1B / RFU, RASA1 / Fold change vs veh, RASA1 / RFU, RB1 / Fold change vs veh, RB1 / RFU, PPFIA1 / Fold change vs veh, PPFIA1 / RFU, MAT2A / Fold change vs veh, MAT2A / RFU, CCT5 / Fold change vs veh, CCT5 / RFU, WDR92 / Fold change vs veh, WDR92 / RFU, CUX1 / Fold change vs veh, CUX1 / RFU, TTC7A / Fold change vs veh, TTC7A / RFU, TMEM135 / Fold change vs veh, TMEM135 / RFU, DEPTOR / Fold change vs veh, DEPTOR / RFU, CPM / Fold change vs veh, CPM / RFU, DNAJB6 / Fold change vs veh, DNAJB6 / RFU, CACNA2D3 / Fold change vs veh, CACNA2D3 / RFU, DTX4 / Fold change vs veh, DTX4 / RFU, TFCP2 / Fold change vs veh, TFCP2 / RFU, GMCL1 /// GMCL1P1 / Fold change vs veh, GMCL1 /// GMCL1P1 / RFU, AEBP2 / Fold change vs veh, AEBP2 / RFU, SNHG1 /// SNORD22 /// SNORD25 /// SNORD26 /// SNORD27 /// SNORD28 /// SNORD29 /// SNORD31 / Fold change vs veh, SNHG1 /// SNORD22 /// SNORD25 /// SNORD26 /// SNORD27 /// SNORD28 /// SNORD29 /// SNORD31 / Fold change (Aza/veh), C12orf56 (ProbeSet 11735607_a_at) / Fold change (ACY-1035/veh), C12orf56 (ProbeSet 11735607_a_at) / Fold change (Aza/veh), FGFR1OP (ProbeSet 11751329_s_at) / Fold change (ACY-1035/veh), FGFR1OP (ProbeSet 11751329_s_at) / Fold change (Aza/veh), VPS36 (ProbeSet 11739960_a_at) / Fold change (ACY-1035/veh), VPS36 (ProbeSet 11739960_a_at) / RFU SYPL1 (11715823_x_at) / Fold change /veh SYPL1 (11715823_x_at) / RFU IGFBP7 (11715501_s_at) / Fold change /veh IGFBP7 (11715501_s_at) / RFU REEP3 (11722064_at) / Fold change /veh REEP3 (11722064_at) / RFU IGLL1 (11728026_x_at) / Fold change /veh IGLL1 (11728026_x_at): dose or concentration left out as unconfirmed
# Conditions: MV-4-11 cells, 48 hours
smiles,measurement,value
Nc1ncn([C@@H]2O[C@H](CO)[C@@H](O)[C@H]2O)c(=O)n1 [azacitidine],Fold change /veh LRRC4B (11730491_at),1.07
